The source made the active and inactive calls. No cut-off for these calls is given here.

The nature of experiment [1]: Inhibition of Almond beta-glucosidase. More on the design: species or system Prunus dulcis.
The target of experiment [2] is Lysosomal alpha-glucosidase (Homo sapiens, UniProt P10253). Put plainly: Inhibition of human lysosomal alpha-glucosidase. In kind it is subcellular, Lysosome.
Experiment [3] concerns the target Beta-glucuronidase (Escherichia coli (strain K12)) (UniProt P05804). Put plainly: Inhibition of Escherichia coli beta-glucuronidase at 1000 uM.
Experiment [4] can be described thus: Inhibition of human lysosomal alpha-galactosidase. Type of experiment: subcellular, Lysosome.
A further experiment has as its target Alpha-glucosidase (Saccharomyces cerevisiae S288c, UniProt P53341+P38158+P07265). Description: Inhibition of yeast alpha-glucosidase. Type of experiment: protein assay.
The target of experiment [5] is T1, Alpha-mannosidase (Canavalia ensiformis) (UniProt C0HJB3).
T1 sequence (whole entry): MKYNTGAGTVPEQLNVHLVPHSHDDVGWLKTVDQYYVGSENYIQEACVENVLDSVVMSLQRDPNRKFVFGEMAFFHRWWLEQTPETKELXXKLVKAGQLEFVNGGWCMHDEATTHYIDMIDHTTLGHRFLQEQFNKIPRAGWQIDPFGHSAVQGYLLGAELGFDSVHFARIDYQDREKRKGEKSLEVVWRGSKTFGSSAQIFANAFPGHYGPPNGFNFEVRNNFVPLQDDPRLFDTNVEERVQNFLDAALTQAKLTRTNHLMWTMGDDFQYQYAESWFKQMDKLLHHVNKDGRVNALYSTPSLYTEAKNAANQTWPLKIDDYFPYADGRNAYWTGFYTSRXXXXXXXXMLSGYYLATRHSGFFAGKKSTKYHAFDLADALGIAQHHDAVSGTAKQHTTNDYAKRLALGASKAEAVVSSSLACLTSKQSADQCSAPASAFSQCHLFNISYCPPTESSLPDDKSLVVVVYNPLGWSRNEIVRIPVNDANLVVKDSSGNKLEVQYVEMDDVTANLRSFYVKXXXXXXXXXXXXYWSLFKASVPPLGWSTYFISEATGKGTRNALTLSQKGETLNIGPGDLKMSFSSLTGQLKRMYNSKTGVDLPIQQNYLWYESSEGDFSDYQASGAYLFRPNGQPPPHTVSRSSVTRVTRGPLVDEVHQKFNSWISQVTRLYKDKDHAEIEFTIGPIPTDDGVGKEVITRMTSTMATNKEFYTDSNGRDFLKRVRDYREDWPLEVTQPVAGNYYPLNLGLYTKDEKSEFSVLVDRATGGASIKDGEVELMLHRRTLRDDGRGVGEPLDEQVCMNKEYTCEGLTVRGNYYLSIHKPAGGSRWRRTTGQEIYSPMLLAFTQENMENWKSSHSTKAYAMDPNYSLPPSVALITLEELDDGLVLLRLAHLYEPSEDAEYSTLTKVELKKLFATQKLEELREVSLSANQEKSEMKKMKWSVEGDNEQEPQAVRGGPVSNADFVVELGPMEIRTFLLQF
Description: Inhibition of jack bean alpha-mannosidase at 1000 uM.

The nature of experiment [6]: Inhibition of Bovine liver beta-glucosidase. Type of experiment: tissue-based, Bos taurus.
Experiment [7] in a line: Inhibition of rat intestinal maltase. Type of experiment: tissue-based, Intestine.
In experiment [8] the test system is Aspergillus niger. Description: Inhibition of Aspergillus niger amyloglucosidase at 1000 uM relative to control.
Another experiment concerns the target Alpha-galactosidase (Coffea arabica, UniProt Q42656). Put plainly: Inhibition of coffee bean alpha-galactosidase.
A short description of experiment [9]: Inhibition of rice alpha glucosidase. More on the design: species or system Oryza sativa.
Experiment [10] is filed under the species Sus scrofa. Put plainly: Inhibition of porcine kidney trehalase at 1000 uM relative to control. Type of experiment: tissue-based.
In experiment [11] the test system is Helix pomatia. Put plainly: Inhibition of snail beta-mannosidase at 1000 uM.
For experiment [12], the target named is T2, Tissue alpha-L-fucosidase (Bos taurus) (UniProt Q2KIM0).
T2 sequence (whole entry): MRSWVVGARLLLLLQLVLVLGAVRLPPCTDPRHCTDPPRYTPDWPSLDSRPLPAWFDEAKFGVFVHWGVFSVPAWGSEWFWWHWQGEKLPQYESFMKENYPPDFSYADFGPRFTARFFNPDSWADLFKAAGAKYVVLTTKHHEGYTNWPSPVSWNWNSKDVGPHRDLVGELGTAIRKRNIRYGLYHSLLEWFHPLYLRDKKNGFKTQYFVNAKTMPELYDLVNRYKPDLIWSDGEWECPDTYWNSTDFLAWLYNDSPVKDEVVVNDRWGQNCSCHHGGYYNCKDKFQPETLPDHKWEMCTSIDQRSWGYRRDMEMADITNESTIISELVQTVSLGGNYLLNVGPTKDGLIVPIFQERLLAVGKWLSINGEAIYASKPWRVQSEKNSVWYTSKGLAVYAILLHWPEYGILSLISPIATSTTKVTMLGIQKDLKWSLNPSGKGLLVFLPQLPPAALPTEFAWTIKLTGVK
Description: Inhibition of bovine kidney alpha-L-fucosidase at 1000 uM. In kind it is tissue-based.

The test system of experiment [13] is Penicillium decumbens. Description: Inhibition of Penicillium decumbens alpha-L-rhamnosidase at 1000 uM relative to control.
The species named for experiment [14] is Bos taurus. Description: Inhibition of bovine liver beta-glucuronidase at 1000 uM. In kind it is tissue-based.
The nature of experiment [15]: Inhibition of bovine liver beta-galactosidase. Type of experiment: tissue-based, Bos taurus.
A short description of experiment [16]: (§1) Inhibition of almond beta-glucosidase at 100 uM relative to control. More on the design: species or system Prunus dulcis.
The target of experiment [17] is T2, Tissue alpha-L-fucosidase (Bos taurus). Put plainly: Inhibition of bovine kidney alpha-L-fucosidase at 100 uM.
A further experiment is filed under the species Homo sapiens. Put plainly: Inhibition of human lysosomal alpha-galactosidase at 100 uM realtive to control. Type of experiment: subcellular. Conditions: Lysosome.
Experiment [18] concerns Penicillium decumbens. Description: Inhibition of Penicillium decumbens alpha-L-rhamnosidase at 100 uM relative to control.
For experiment [19], the species on record is Sus scrofa. Put plainly: Inhibition of porcine kidney trehalase at 100 uM relative to control. In kind it is tissue-based.
The species named for experiment [20] is Bos taurus. Description: Inhibition of bovine liver beta-glucuronidase at 100 uM.
Experiment [21] addresses Beta-glucuronidase (Escherichia coli (strain K12)) (UniProt P05804). Put plainly: Inhibition of Escherichia coli beta-glucuronidase at 100 uM.
For experiment [22], the target named is T1, Alpha-mannosidase (Canavalia ensiformis). Put plainly: Inhibition of jack bean alpha-mannosidase at 100 uM.
Experiment [23] has as its system Helix pomatia. Description: Inhibition of snail beta-mannosidase at 100 uM.
In experiment [24] the test system is Aspergillus niger. Description: Inhibition of Aspergillus niger amyloglucosidase at 100 uM relative to control.
Experiment [25] deals with Prunus dulcis. The description is as §1.
In experiment [26] the test system is Prunus dulcis. Put plainly: Inhibition of almond beta-glucosidase at 1000 uM relative to control.
The nature of experiment [27]: Inhibition of Almond beta-glucosidase using p-nitrophenyl glycoside as substrate preincubated for 5 mins followed by substrate addition and measured after 15 mins by spectrometry analysis. More on the design: species or system Prunus dulcis.
Experiment [28] has as its system Prunus dulcis. Description: Inhibition of Almond beta-glucosidase at 412 uM relative to control.
For experiment [29], the target named is Alpha-galactosidase (Coffea arabica) (UniProt Q42656). Put plainly: Inhibition of coffee bean alpha-galactosidase at 1000 uM relative to control.
Alpha-galactosidase (Coffea arabica), sequence (Q42656 16-378 limits assumed): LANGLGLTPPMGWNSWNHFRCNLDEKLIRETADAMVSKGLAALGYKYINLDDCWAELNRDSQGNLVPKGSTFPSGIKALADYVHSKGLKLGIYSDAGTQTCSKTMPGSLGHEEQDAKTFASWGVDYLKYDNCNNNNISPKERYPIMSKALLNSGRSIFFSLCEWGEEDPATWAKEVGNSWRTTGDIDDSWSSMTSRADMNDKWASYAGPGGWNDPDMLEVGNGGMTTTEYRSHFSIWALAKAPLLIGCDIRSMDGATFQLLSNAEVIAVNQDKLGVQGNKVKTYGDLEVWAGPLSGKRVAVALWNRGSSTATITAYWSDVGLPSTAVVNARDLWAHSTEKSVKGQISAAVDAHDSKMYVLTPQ

Alpha-galactosidase, sequence (Q42656 whole entry): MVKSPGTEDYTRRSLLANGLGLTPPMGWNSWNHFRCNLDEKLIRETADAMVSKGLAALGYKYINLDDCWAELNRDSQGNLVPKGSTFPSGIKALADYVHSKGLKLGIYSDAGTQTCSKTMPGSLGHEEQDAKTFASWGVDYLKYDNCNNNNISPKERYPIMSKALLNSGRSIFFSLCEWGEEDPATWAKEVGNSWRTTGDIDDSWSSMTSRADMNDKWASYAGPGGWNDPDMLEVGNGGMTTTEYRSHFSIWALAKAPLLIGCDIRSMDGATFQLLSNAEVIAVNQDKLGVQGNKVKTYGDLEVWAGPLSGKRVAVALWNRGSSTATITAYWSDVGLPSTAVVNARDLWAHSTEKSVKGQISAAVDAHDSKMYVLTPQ
Beta-glucuronidase (Escherichia coli (strain K12)), sequence (P05804 whole entry, looked up): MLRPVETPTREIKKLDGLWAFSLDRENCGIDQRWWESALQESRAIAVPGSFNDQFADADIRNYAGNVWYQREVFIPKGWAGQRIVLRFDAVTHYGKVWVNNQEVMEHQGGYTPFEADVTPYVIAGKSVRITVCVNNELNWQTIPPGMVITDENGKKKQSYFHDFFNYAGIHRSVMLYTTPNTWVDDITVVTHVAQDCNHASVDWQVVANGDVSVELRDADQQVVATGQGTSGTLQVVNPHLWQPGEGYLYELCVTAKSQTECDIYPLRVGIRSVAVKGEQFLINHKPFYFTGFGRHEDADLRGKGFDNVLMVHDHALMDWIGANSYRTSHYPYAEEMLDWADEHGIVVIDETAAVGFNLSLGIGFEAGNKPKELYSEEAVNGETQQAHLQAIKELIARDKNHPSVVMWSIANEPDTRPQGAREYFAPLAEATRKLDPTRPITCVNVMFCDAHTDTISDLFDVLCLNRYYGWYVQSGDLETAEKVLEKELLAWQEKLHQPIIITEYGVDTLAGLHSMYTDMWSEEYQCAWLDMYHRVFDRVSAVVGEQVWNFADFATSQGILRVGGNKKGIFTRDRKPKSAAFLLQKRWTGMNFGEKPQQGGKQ

What is called IC50 is the point on the concentration scale where inhibition reaches its midpoint. In [1], `OC[C@H]1N[C@H]([C@H](O)CCCCCC[C@H](O)[C@@H](O)Cc2ccc(O)cc2)[C@@H](O)[C@@H]1O` came in with an IC50 of 0.92 µM.
A word on the inhibition: it is the relative decrease from the control value, in per cent. `CCCCCCCC[C@H]1N[C@H](CO)[C@@H](O)[C@H](O)[C@H]1O`: the 50% inhibitory concentration (IC50) in [2] is 0.6 µM; in experiment [4], 13 µM; against Alpha-glucosidase it was 71 µM; in [6], 195 µM; in [7], 1.7 µM; on Alpha-galactosidase, 3.3 µM. The IC50 in experiment [9] came to 0.7 µM; in experiment [15], 52 µM; in experiment [1], 175 µM; in experiment [16] it was 175 µM. Also, the inhibition entry (in [3]; in experiment [5]; in the experiment on Helix pomatia [11]; in experiment [12]; in the experiment filed under Bos taurus [14]) was “inactive” throughout. Moreover, the inhibition is 38.8% in the experiment with Aspergillus niger [8], 43.2% in the experiment listed under Sus scrofa [10] and 43.8% in the experiment with Penicillium decumbens [13].
In experiment [1], `OC[C@H]1N[C@H]([C@H](O)C(O)CCCCCC(O)C(O)C(O)c2ccccc2)[C@@H](O[C@@H]2O[C@H](CO)[C@@H](O)[C@H](O)[C@H]2O)[C@H]1O` (some centres undefined) showed a concentration for half-maximal inhibition (IC50) of 15 µM.
Same read-out and setting: the figure for `OC[C@H]1N[C@H](CO)[C@@H](O)[C@H]1O` is 40 µM; for `OC[C@H]1N[C@H]([C@H](O)C(O)CCCCCCC(O)C(O)c2ccccc2)[C@@H](O[C@@H]2O[C@H](CO)[C@@H](O)[C@H](O)[C@H]2O)[C@H]1O` (some centres undefined) it is 68 µM.
Consider `O=C(O)C(F)(F)F.OC[C@H]1N[C@H](CCCCCCCCCc2ccc(O)cc2)[C@H](O)[C@@H](O)[C@@H]1O`, for which the concentration for half-maximal inhibition (IC50) in experiment [2] worked out at 0.25 µM; at Alpha-glucosidase it was 95 µM; in [6] it was 25 µM; in [7], 0.95 µM; against Alpha-galactosidase, 22 µM; in [9], 0.4 µM. The IC50 in experiment [15] worked out at 4.1 µM. The inhibition entry (in [17]; in the experiment filed under Bos taurus [20]; in [21]; in [22]; with Helix pomatia [23]) was “inactive” throughout. In addition, the inhibition in the experiment listed under Homo sapiens turned out to be 42.9%; in the experiment on Penicillium decumbens [18], 10.9%; in the experiment filed under Sus scrofa [19], 13.2%; with Aspergillus niger [24], 16.4%; with Prunus dulcis [25] it was 33.1%.
`OCCCCCC/C=C\C[C@H](O)[C@@H](O)[C@H]1N[C@H](CO)[C@H](O)[C@@H]1O[C@@H]1O[C@H](CO)[C@@H](O)[C@H](O)[C@H]1O`: the IC50 on Alpha-galactosidase was 8 µM. In the experiment with Prunus dulcis [26], this compound displayed an inhibition of under 50%.
In experiment [27], `OC[C@H]1N[C@H](CCCCCCC(O)C(O)Cc2ccc(O)cc2)[C@H](O)[C@@H](O)[C@@H]1O` (some centres undefined) returned an IC50 of 0.15 µM.
For `OCCCCCCCCCCCC[C@H](O)[C@@H]1N[C@@H](CO)[C@H](O)[C@H]1O`, the inhibition in the experiment with Prunus dulcis [28] is 15.2%.
As to `OC[C@H]1N[C@H](C(O)CCCCCCC(O)C(O)c2ccccc2)[C@H](O)[C@@H](O)[C@H]1O` (some centres undefined), the inhibition in experiment [29] was found to be 76%.

The record behind these values is ChEMBL document CHEMBL5316362, “Synthesis of the Purported Structure of Glyphaeaside C and Proposed Revisions to the Structures of the Glyphaeaside Alkaloids” (J Nat Prod, 2023).
